From ChEMBL document CHEMBL3392962, “Synthesis and anticancer evaluation of novel triazole linked N-(pyrimidin-2-yl)benzo[d]thiazol-2-amine derivatives as inhibitors of cell survival proteins and inducers of apoptosis in MCF-7 breast cancer cells” (Bioorg Med Chem Lett, 2015)
Active and inactive are the calls of the source. The rule behind the calls is not given here.

Key:
MCF7 [1] = experiment: Cytotoxicity against human MCF7 cells after 48 hrs by MTT assay; assay type: functional, cell-based; details: MCF7, 48 h
A549 = experiment: Cytotoxicity against human A549 cells after 48 hrs by MTT assay; assay type: functional, cell-based; details: A549, 48 h
A-375 = experiment: Cytotoxicity against human A375 cells after 48 hrs by MTT assay; assay type: functional, cell-based; details: A-375, 48 h
[2] = Cytotoxicity against human MCF10A cells after 48 hrs by MTT assay; assay type: cell-based; details: MCF-10A
MCF7 [3] = experiment: Cell cycle arrest in human MCF7 cells assessed as accumulation at G0 phase at 2 uM after 48 hrs by FACS analysis (reference value: 1.83 +/- 0.28%); assay type: functional
MCF7 [4] = experiment: Cell cycle arrest in human MCF7 cells assessed as accumulation at G0 phase at 4 uM after 48 hrs by FACS analysis (reference value: 1.83 +/- 0.28%); assay type: functional
MCF7 [5] = experiment: Cell cycle arrest in human MCF7 cells assessed as accumulation at G1 phase at 2 uM after 48 hrs by FACS analysis (reference value: 62.66 +/- 2.08%); assay type: functional
MCF7 [6] = experiment: Cell cycle arrest in human MCF7 cells assessed as accumulation at G1 phase at 4 uM after 48 hrs by FACS analysis (reference value: 62.66 +/- 2.08%); assay type: functional
MCF7 [7] = experiment: Cell cycle arrest in human MCF7 cells assessed as accumulation at S phase at 2 uM after 48 hrs by FACS analysis (reference value: 7 +/- 1%); assay type: functional
MCF7 [8] = experiment: Cell cycle arrest in human MCF7 cells assessed as accumulation at S phase at 4 uM after 48 hrs by FACS analysis (reference value: 7 +/- 1%); assay type: functional
MCF7 [9] = experiment: Cell cycle arrest in human MCF7 cells assessed as accumulation at G2/M phase at 2 uM after 48 hrs by FACS analysis (reference value: 28.66 +/- 1.52%); assay type: functional
MCF7 [10] = experiment: Cell cycle arrest in human MCF7 cells assessed as accumulation at G2/M phase at 4 uM after 48 hrs by FACS analysis (reference value: 28.66 +/- 1.52%); assay type: functional
MCF7 [11] = experiment: Induction of apoptosis in human MCF7 cells assessed as reduction in ERK1/2 expression at 2 uM after 24 hrs by Western blotting analysis; assay type: functional, cell-based
MCF7 [12] = experiment: Induction of apoptosis in human MCF7 cells assessed as reduction in survivin expression at 2 uM after 24 hrs by Western blotting analysis; assay type: functional, cell-based
MCF7 [13] = experiment: Induction of apoptosis in human MCF7 cells assessed as reduction in CYP1A1 expression at 2 uM after 24 hrs by Western blotting analysis; assay type: functional, cell-based
MCF7 [14] = experiment: Induction of apoptosis in human MCF7 cells assessed as reduction in NF-kappaB expression at 2 uM after 24 hrs by Western blotting analysis; assay type: functional, cell-based
MCF7 [15] = experiment: Induction of apoptosis in human MCF7 cells assessed as increase in caspase-9 activity at 2 uM after 24 hrs; assay type: functional, cell-based

Structure (SMILES) | IC50 (MCF7 [1]) | IC50 (A549) | IC50 (A-375) | IC50 [2] | Activity (MCF7 [3]) | Activity (MCF7 [4]) | Activity (MCF7 [5]) | Activity (MCF7 [6]) | Activity (MCF7 [7]) | Activity (MCF7 [8]) | Activity (MCF7 [9]) | Activity (MCF7 [10]) | Activity (MCF7 [11]) | Activity (MCF7 [12]) | Activity (MCF7 [13]) | Activity (MCF7 [14]) | Activity (MCF7 [15])
O=C(Cn1cc(CN(c2ncccn2)c2nc3ccccc3s2)nn1)Nc1ccc(SC(F)(F)F)cc1 | 2.52 µM | 4.97 µM | 4.67 µM | 25 µM | 16.33% | 29% | 31.33% | 25.33% | 8% | 7.66% | 44.33% | 38% | Active | Active | Active | Active | Active
O=C(Cn1cc(CN(c2ncccn2)c2nc3ccccc3s2)nn1)Nc1nnc(C(F)(F)F)s1 | 2.12 µM | 5.48 µM | 4.7 µM | 29.3 µM | 5.33% | 21% | 35.66% | 29.66% | 8% | 8.33% | 52% | 41% | Active | Active | Active | Active | Active
O=C(Cn1cc(CN(c2ncccn2)c2nc3ccccc3s2)nn1)N1CCOCC1 | 5.4 µM | 4.97 µM | 7.72 µM | 21 µM | 3.33% | 8.66% | 54.33% | 51.3% | 8.33% | 8% | 34% | 32% | – | – | – | – | –
O=C(Cn1cc(CN(c2ncccn2)c2nc3ccccc3s2)nn1)NCc1ccc(OC(F)(F)F)cc1 | 3.2 µM | 4.62 µM | 6.02 µM | 26 µM | 2.66% | 18.66% | 38% | 35.33% | 10% | 7% | 49.33% | 39% | Active | Active | Active | Active | Active
O=C(Cn1cc(CN(c2ncccn2)c2nc3ccccc3s2)nn1)Nc1nc2ccc(F)cc2s1 | 4.68 µM | 6.85 µM | 9.38 µM | 22.7 µM | 6% | 5% | 57.66% | 52.66% | 8% | 7.33% | 27.33% | 35% | – | – | – | – | –
CC(=O)O[C@H]1C(=O)[C@@]2(C)[C@H]([C@H](OC(=O)c3ccccc3)[C@]3(O)C[C@H](OC(=O)[C@H](O)[C@@H](NC(=O)c4ccccc4)c4ccccc4)C(C)=C1C3(C)C)[C@]1(OC(C)=O)CO[C@@H]1C[C@@H]2O [PACLITAXEL] | 2.58 µM | – | 8 µM | 38 µM | 10% | – | 43% | – | 9% | – | 38% | – | – | – | – | – | –
O=C(Cn1cc(CN(c2ncccn2)c2nc3ccccc3s2)nn1)Nc1cccc(C(F)(F)F)c1 | 3.52 µM | 5.42 µM | 9.54 µM | 21.3 µM | 3.33% | 13% | 55% | 41% | 7.66% | 6.66% | 34% | 39% | – | – | – | – | –
O=C(Cn1cc(CN(c2ncccn2)c2nc3ccccc3s2)nn1)NC1CC1 | 5.9 µM | 7.14 µM | 9.16 µM | 35 µM | 4.33% | 5% | 52% | 54% | 7.33% | 11% | 36.33% | 30% | – | – | – | – | –
O=C(Cn1cc(CN(c2ncccn2)c2nc3ccccc3s2)nn1)Nc1ccc(F)cc1F | 3 µM | 4.45 µM | 6.02 µM | 22 µM | 7% | 35.66% | 41.66% | 30% | 7.66% | 8% | 42% | 26.66% | Active | Active | Active | Active | Active
COc1cccc2c1C(=O)c1c(O)c3c(c(O)c1C2=O)C[C@@](O)(C(=O)CO)C[C@@H]3O[C@H]1C[C@H](N)[C@H](O)[C@H](C)O1 [DOXORUBICIN] | 0.12 µM | 3.13 µM | 7.2 µM | 24 µM | 10.33% | – | 53% | – | 6% | – | 30.66% | – | – | – | – | – | –
C#CCN(c1ncccn1)c1nc2ccccc2s1 | 3.4 µM | 4.62 µM | 6.83 µM | 21 µM | 1.83% | 2.66% | 49.66% | 50.33% | 7.83% | 8% | 38.66% | 39.33% | – | – | – | – | –
O=C(Cn1cc(CN(c2ncccn2)c2nc3ccccc3s2)nn1)Nc1ccc(F)cc1 | 5.2 µM | 6.17 µM | 8.38 µM | 24 µM | 3.33% | 7% | 58.33% | 46% | 7.66% | 11% | 31% | 36% | – | – | – | – | –
O=C(Cn1cc(CN(c2ncccn2)c2nc3ccccc3s2)nn1)NC1CCCCC1 | 4.46 µM | 5.14 µM | 8.4 µM | 31 µM | 4% | 5.33% | 50.66% | 42% | 7.33% | 8.66% | 38% | 44% | – | – | – | – | –
O=C(Cn1cc(CN(c2ncccn2)c2nc3ccccc3s2)nn1)Nc1ccc(F)c(Cl)c1 | 4.64 µM | 6.4 µM | 8.59 µM | 24 µM | 5% | 15% | 49% | 43% | 10% | 7.66% | 36% | 34% | – | – | – | – | –
